Test results from ChEMBL document CHEMBL1201862, “PubChem BioAssay data set” (2004).
Active and inactive are the calls of the source.

Assays:
[1] = AlphaScreen signal interference compounds, dose response, artefact control for ARNT-TACC3 interaction inhibitor project, biochemical, luminescence, cherry-pick (AID 651705); type: functional;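 note: AlphaScreen bead proximity signal that flags compounds interfering with the detection technology; potency reflects signal decrease which marks the compound as an assay artifact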
[2] = molecular target: T1, Microphthalmia-associated transcription factor (Homo sapiens, UniProt O75030); assay: TRPM1 promoter luciferase signal decrease, dose response, MITF inhibitor project, cell-based, SK-MEL-5, cherry-picked, set 3 (AID 493073); type: functional
T1 sequence (O75030 whole entry): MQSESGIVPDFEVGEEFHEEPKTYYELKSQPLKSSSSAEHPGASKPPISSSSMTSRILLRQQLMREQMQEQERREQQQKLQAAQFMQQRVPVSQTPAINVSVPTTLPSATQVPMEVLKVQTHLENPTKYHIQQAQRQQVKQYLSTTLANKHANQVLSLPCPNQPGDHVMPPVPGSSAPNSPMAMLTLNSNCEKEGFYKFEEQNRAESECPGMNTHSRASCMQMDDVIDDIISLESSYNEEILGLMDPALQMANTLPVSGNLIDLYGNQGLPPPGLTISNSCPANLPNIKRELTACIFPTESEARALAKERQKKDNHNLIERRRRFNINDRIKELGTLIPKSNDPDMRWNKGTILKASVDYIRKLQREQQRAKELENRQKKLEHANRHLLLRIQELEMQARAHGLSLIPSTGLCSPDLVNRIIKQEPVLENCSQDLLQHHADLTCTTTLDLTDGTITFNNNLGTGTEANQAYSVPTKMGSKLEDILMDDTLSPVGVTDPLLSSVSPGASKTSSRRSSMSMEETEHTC

[3] = molecular target: T2, Heat shock factor protein 1 (Mus musculus, UniProt P38532); assay: inhibition of MG132-induced HSE-luciferase signal, confirmation, cell-based, NIH3T3, luminescence, dose retest (AID 2382); type: functional;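 note: NIH3T3 fibroblasts with HSF1-driven luciferase reporter stressed by proteasome inhibitor MG132; luminescence from HSF1-driven luciferase expression after 8 hours of MG132 stress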
T2 sequence (P38532 whole entry): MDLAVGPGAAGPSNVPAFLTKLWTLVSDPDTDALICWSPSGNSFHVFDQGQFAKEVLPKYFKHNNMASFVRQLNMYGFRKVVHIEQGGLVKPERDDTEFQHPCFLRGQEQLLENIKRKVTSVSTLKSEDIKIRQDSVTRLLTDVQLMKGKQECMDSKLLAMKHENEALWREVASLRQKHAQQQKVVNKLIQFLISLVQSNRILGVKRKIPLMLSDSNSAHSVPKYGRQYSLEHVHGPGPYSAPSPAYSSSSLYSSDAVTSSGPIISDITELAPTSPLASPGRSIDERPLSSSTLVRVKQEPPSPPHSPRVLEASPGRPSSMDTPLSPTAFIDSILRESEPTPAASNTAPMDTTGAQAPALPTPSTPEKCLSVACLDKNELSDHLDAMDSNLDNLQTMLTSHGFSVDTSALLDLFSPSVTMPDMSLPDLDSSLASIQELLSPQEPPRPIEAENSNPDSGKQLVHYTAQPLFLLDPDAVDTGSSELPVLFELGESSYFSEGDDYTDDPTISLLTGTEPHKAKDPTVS

[4] = CEM21 lymphoblast cell cytotoxicity, dose response, cytotoxicity control for viral fusion inhibitor project, CellTiter-Glo luminescence, cherry-picked (AID 652042); type: functional, cell-based;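 note: potency for signal decrease meaning cytotoxicity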
[5] = inhibitors of clade B AD8 Env fusion, dose response, cell-based, cherry-pick (AID 652062); type: functional;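 note: luciferase signal from cell-cell fusion driven by HIV-1 clade B AD8 Env; potency is for inhibitors of fusion seen as a drop in luminescence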
[6] = molecular target: Dual specificity tyrosine-phosphorylation-regulated kinase 1A (Rattus norvegicus, UniProt Q63470); type: biochemical, Homo sapiens
Interleukin-8 [7] = molecular target: T3, Interleukin-8 (Homo sapiens, UniProt P10145); assay: Dose Response confirmation of uHTS small molecule hits for cystic fibrosis induced NFkb Inhibitors in a PAF-induced IL8 counterscreen.; type: functional; details: read-out: IC50_Mean
T3 sequence (P10145 whole entry): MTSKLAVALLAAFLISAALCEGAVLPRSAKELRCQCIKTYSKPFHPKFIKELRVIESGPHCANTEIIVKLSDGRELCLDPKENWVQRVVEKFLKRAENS

[8] = molecular target: Sphingosine 1-phosphate receptor 2 (Homo sapiens, UniProt O95136); assay: Dose Response Cell Based Assay for Antagonists of the S1P2 Receptor. [Related pubchem assays: 856, 736 ]; type: functional
[9] = inhibitors of HIV Env-driven cell fusion, dose response, cherry-pick (AID 652057); type: functional, cell-based
Interleukin-8 [10] = molecular target: T3, Interleukin-8; assay: Dose Response confirmation of uHTS small molecule hits for cystic fibrosis induced NFkb Inhibitors in a TNFa-induced IL8 counterscreen.; type: functional; details: read-out: IC50_Mean
[11] = ZM109 Env clade C HIV-1 fusion inhibitors, dose response, HeLa effector, CEM target cells, luciferase, cherry-pick (AID 652058); type: functional, cell-based
[12] = off-target signal loss in HeLa-CEM21 co-culture – HeLa F-luc CTL cells, cherry-picked, counter-screen for HIV-1 Env fusion inhibitor project, dose response (AID 652040); type: functional, cell-based;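 note: potency for signal decrease marking cytotoxic or nonspecific inhibition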
Cytochrome P450 3A4 = Cytochrome P450 3A4 (Homo sapiens, UniProt P08684);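 note: CYP3A4 tested as one member of a cytochrome P450 panel screen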
[13] = molecular target: T4, ATP-dependent translocase ABCB1 (Homo sapiens, UniProt P08183); assay: ABCB1 efflux inhibitor potency, dose response, Jurkat-DNR cells, JC-1, flow cytometry, set 2 (AID 504569); type: functional; details: read-out: EC50_MICROM_;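 note: potency of pump inhibitors that raise cellular JC-1 green fluorescence up to the nicardipine level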
H9c2 = assay: cells; type: functional, cell-based; details: Rattus norvegicus, H9c2, Myocardium;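 note: confirmatory concentration-response retest of ultra-high-throughput screening hits for modulation of myocardial damage; cell death induced by hydrogen peroxide oxidative stress; compound pretreatment for 60 min then peroxide exposure for 2 h; potency is for protecting the cells against peroxide damage rather than for killing them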
[14] = molecular target: T4, ATP-dependent translocase ABCB1; assay: ABCG2 efflux pump inhibitor potency, dose response, Ig-MXP3 cells, JC-1, flow cytometry, set 2 (AID 504566); type: functional; details: read-out: EC50_MICROM_;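 note: flow cytometry median green fluorescence of retained JC-1 dye; potency of efflux pump inhibition measured as rising substrate retention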
[15] = molecular target: Mitochondrial peptide methionine sulfoxide reductase (Bos taurus, UniProt P54149); type: functional;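 note: absorbance read-out, biochemical high-throughput dose-response screen for MsrA inhibitors, confirmatory; recombinant bovine MsrA coupled to E. coli TrxB with NADPH and selenocystamine; potency is for inhibitors of MsrA activity on DMSO substrate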
[16] = molecular target: Photoreceptor-specific nuclear receptor (Homo sapiens, UniProt Q9Y5X4); type: functional, cell-based;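 note: CHO-S cells with Gal4-NCOR and VP16-NR2E3 two-hybrid luciferase reporter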
Protein RecA = molecular target: T5, Protein RecA (Mycobacterium tuberculosis, UniProt P9WHJ3); assay: Fluorescence Cell-Free Homogeneous Dose Retest to Identify Inhibitors of RecA-Intein Splicing Activity. [Related pubchem assays (depositor defined):AID2097, AID2223, AID489010, AID492950]; type: functional
T5 sequence (P9WHJ3 whole entry): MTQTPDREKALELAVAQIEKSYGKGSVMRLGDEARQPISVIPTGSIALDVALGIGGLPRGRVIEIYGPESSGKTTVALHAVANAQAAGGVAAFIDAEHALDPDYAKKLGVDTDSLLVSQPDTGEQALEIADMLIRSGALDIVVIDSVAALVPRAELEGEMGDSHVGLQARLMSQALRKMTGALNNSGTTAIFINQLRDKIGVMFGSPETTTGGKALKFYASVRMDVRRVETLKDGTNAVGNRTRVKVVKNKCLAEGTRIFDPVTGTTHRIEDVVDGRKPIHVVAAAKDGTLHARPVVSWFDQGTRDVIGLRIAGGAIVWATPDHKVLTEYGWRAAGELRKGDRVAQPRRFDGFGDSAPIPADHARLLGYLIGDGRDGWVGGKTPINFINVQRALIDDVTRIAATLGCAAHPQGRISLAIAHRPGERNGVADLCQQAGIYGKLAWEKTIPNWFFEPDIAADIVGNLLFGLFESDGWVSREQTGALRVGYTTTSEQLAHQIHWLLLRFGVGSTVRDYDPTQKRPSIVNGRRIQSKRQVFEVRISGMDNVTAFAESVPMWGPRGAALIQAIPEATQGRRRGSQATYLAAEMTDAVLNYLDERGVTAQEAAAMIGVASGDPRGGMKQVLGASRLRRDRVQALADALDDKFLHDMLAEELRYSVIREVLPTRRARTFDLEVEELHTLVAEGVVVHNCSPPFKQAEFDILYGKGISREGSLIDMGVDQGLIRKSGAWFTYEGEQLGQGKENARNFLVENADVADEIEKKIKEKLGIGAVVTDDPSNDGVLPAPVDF

[17] = molecular target: T6, Replicative DNA helicase DnaB (Mycobacterium tuberculosis, UniProt P9WMR3); assay: DnaB intein splicing inhibitors, dose response, biochemical, cell-free fluorescence (AID 449749); type: functional
T6 sequence (P9WMR3 whole entry): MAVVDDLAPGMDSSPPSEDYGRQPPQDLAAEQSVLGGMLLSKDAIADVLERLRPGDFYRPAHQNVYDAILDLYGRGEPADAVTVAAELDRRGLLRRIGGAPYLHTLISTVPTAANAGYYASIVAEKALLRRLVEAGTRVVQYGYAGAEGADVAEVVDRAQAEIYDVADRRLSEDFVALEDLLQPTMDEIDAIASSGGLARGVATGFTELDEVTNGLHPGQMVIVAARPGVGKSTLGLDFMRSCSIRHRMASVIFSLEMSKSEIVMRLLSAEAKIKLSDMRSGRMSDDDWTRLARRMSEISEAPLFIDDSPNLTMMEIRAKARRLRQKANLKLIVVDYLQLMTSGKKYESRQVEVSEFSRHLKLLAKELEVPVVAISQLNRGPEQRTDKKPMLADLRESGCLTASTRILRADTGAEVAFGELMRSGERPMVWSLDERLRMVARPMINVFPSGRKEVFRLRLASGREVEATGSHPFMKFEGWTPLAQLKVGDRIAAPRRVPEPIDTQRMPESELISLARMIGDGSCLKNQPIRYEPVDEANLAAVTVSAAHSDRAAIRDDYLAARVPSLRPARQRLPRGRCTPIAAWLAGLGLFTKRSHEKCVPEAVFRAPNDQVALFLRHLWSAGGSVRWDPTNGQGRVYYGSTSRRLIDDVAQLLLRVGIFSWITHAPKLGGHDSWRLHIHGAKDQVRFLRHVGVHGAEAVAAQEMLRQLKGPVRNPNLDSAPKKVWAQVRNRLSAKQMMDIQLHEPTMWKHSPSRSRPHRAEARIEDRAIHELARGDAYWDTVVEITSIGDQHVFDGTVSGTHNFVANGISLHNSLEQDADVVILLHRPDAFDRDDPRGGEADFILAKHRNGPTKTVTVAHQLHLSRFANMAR

[18] = molecular target: Hepatocyte nuclear factor 4-alpha (Homo sapiens, UniProt P41235); type: functional, cell-based;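 note: biochemical luminescence-based dose-response counterscreen measuring inhibition of HNF4 dimerization, run alongside a screen for blockers of ABHD5–perilipin-5 interaction; split luciferase complementation of HNF4 fusion proteins in cell lysate measuring dimerization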
[19] = molecular target: T2, Heat shock factor protein 1; assay: HSF1 potentiators in luciferase reporter cells, confirmation, cell-based, NIH3T3, luminescence, dose retest (AID 435004); type: functional;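 note: stress induced by proteasome inhibitor MG132 added 30 min after compound; luciferase reporter driven by HSF1 response element in NIH3T3 cells; actives raise luminescence as potentiators of the MG132 stress response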
[20] = molecular target: T7, Corticotropin-releasing factor receptor 2/Corticotropin-releasing factor-binding protein (Homo sapiens, UniProt P24387+Q13324); assay: activators of CRF receptor 2 with binding protein – uHTS hits, confirmation (AID 602473); type: functional; details: read-out: EC50_Mean
T7 sequence (Q13324 whole entry): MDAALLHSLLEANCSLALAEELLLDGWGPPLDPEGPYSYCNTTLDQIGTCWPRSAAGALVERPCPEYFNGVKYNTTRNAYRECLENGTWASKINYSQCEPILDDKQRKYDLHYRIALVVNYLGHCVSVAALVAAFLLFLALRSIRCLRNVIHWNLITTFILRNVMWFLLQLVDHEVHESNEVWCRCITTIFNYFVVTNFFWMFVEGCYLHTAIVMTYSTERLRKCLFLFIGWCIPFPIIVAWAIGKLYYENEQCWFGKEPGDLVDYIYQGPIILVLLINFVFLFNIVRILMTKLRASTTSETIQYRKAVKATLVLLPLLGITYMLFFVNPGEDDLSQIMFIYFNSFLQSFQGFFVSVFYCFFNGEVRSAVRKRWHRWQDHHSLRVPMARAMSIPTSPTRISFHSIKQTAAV
T7 sequence (P24387 whole entry): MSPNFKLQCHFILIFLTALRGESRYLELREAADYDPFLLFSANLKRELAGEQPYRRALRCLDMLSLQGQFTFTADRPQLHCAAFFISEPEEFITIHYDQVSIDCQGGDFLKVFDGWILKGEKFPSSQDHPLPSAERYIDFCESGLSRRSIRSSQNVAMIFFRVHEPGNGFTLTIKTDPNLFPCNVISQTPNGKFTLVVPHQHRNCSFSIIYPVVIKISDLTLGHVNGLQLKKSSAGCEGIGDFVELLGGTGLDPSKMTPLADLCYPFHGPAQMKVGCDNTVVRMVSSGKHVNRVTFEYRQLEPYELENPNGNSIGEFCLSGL

[21] = molecular target: T7, Corticotropin-releasing factor receptor 2/Corticotropin-releasing factor-binding protein; assay: Dose Response confirmation of uHTS hits for small molecule antagonists of the CRF-binding protein and CRF-R2 receptor complex.; type: functional; details: read-out: IC50_Mean
[22] = CRF-BP/CRF-R2 complex antagonists, dose response, cell-based, uHTS hits, 384-well (AID 651639); type: functional, Homo sapiens; details: read-out: IC50_Mean

T4 sequence (P08183 whole entry): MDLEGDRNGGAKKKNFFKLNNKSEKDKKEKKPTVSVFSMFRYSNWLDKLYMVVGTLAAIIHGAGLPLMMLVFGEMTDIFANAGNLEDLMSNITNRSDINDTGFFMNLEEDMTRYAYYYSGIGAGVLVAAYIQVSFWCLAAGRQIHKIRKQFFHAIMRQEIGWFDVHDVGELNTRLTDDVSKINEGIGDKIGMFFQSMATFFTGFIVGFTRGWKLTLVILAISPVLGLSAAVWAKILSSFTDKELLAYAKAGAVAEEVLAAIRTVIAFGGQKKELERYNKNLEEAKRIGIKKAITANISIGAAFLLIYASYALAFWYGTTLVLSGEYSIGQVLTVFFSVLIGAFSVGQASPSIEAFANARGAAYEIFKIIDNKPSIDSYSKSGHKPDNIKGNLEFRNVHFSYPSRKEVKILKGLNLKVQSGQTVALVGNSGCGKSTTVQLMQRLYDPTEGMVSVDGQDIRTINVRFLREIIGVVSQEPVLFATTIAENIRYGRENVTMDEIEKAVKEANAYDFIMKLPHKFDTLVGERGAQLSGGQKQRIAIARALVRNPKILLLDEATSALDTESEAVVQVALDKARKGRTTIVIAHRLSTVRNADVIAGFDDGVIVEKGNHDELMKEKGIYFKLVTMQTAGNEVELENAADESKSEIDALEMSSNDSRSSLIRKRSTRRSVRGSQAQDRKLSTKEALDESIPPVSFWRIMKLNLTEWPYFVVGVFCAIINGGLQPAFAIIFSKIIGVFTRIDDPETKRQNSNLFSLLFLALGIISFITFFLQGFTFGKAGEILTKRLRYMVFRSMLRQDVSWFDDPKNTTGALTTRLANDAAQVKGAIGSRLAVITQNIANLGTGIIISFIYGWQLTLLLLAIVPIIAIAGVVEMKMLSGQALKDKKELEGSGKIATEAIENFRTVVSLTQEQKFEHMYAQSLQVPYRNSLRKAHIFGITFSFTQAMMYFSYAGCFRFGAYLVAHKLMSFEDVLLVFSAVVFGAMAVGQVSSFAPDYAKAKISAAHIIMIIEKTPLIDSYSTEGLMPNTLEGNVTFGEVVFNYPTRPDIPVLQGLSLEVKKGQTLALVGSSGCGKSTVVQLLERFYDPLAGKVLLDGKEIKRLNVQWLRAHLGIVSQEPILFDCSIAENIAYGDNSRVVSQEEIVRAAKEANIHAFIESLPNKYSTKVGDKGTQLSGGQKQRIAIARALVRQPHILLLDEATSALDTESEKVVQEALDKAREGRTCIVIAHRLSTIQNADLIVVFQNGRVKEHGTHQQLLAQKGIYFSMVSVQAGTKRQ
Chain of Photoreceptor-specific nuclear receptor (Q9Y5X4 whole entry, the tested form may be a part): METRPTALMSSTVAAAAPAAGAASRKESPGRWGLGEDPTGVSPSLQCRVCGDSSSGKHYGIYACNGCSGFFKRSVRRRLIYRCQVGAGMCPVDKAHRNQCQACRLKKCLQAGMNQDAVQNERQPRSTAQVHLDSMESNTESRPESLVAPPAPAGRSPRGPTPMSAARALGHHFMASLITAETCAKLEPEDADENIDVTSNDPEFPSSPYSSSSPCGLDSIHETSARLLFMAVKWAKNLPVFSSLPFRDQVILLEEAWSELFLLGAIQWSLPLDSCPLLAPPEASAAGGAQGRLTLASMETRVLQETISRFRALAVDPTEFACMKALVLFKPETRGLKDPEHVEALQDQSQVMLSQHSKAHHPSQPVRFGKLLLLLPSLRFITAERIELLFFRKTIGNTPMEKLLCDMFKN
Chain of Mitochondrial peptide methionine sulfoxide reductase (P54149 whole entry, the tested form may be a part): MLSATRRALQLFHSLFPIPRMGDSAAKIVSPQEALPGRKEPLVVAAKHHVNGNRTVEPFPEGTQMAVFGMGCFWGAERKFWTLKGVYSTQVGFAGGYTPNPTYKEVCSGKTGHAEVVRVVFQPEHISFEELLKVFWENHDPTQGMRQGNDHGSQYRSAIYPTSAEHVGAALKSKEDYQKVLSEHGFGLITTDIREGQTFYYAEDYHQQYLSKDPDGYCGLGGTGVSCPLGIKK
Chain of Cytochrome P450 3A4 (P08684 whole entry): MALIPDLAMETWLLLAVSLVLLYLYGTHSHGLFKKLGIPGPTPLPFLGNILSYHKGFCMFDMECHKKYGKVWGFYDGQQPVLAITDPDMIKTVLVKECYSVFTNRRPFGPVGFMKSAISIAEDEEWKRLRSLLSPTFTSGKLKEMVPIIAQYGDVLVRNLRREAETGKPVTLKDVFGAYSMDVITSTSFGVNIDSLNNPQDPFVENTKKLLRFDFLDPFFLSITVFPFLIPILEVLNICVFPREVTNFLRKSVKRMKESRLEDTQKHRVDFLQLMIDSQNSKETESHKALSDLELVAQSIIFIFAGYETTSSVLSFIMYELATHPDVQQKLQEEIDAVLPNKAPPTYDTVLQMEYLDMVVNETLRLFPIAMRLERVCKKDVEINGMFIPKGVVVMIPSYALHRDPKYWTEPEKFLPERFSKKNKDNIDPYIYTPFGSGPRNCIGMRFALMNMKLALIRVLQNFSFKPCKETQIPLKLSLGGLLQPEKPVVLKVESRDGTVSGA
Chain of Sphingosine 1-phosphate receptor 2 (O95136 whole entry, the tested form may be a part): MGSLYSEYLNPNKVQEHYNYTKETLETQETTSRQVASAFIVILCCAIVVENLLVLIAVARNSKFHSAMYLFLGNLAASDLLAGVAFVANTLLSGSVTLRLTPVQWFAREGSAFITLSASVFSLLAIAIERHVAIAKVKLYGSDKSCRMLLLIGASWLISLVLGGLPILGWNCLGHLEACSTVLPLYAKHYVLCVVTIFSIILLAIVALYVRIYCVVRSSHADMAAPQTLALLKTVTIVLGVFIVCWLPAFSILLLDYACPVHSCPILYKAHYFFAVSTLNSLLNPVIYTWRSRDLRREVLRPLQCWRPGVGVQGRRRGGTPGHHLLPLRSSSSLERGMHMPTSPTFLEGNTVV
Chain of Hepatocyte nuclear factor 4-alpha (P41235 whole entry, the tested form may be a part): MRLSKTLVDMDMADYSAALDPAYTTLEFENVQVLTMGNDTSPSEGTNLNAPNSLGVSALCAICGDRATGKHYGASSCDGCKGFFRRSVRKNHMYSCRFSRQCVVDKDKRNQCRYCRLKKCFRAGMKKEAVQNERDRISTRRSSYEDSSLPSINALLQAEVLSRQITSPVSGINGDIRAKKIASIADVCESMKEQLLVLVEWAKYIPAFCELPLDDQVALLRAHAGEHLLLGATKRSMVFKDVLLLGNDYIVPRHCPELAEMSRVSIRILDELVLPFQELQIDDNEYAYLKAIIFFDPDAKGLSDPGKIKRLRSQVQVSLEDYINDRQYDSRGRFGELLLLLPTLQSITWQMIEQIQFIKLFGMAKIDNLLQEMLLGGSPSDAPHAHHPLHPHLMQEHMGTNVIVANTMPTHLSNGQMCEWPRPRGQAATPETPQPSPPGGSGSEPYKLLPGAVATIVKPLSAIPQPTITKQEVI

With `O=C(CSc1cccc2cccnc12)Nc1ccccc1F` the AC50 [1] was 90.5 µM (active).

For `COc1cccc(-c2nnc3n2N=C(C(C)(C)C)CS3)c1`, the AC50 [2] was 4.82 µM (active), the EC50 [3] was 2.96 µM (active) and the AC50 [4] was 8.58 µM (active). The AC50 [5] was 2.3 µM (active), the AC50 [6] was 8.72 µM (active) and the IC50 (Interleukin-8 [7]) was 4.14 µM (active). The IC50 [8] was 3.31 µM (active), the AC50 [9] was 1.25 µM (active) and the IC50 (Interleukin-8 [10]) was 42.4 µM (inactive). For the same molecule, the AC50 [11] was 0.976 µM (active), the AC50 [12] was 2.95 µM (active) and the AC50 (Cytochrome P450 3A4) was 25.1 µM (inconclusive).

For `COc1ccc(-c2cc3nc(-c4ccccc4)cc(N4CCN(C(C)=O)CC4)n3n2)cc1`, the EC50 [13] was 1.94 µM (active), the IC50 (H9c2) was > 79 µM (inactive) and the EC50 [14] was 1.47 µM (active).

With `O=[N+]([O-])c1cccc(/C=N/n2c(S)nnc2C2CCCCC2)c1` the IC50 [15] was 155 µM (inactive).

In the case of `O=C(O)CC1(CC(=O)Nc2cc(C(F)(F)F)cc(C(F)(F)F)c2)CCCCC1`, the IC50 [16] is reported as 2.23 µM (active).

With `N#Cc1ncc(Cc2ccccc2)nc1C#N` the EC50 (Protein RecA) was 1.71 µM (active), the AC50 [17] was 2.42 µM (active) and the IC50 [18] was 18.1 µM (inactive). For the same molecule, the EC50 [19] was 18.1 µM (active).

In the case of `CN(CCOc1ccc(Cl)cc1)C(=O)C1CCN(C(=O)c2ccc(Cl)cc2)CC1`, the EC50 [20] is reported as > 53 µM (inactive), the IC50 [21] is reported as < 0.368 µM (active) and the IC50 [22] is reported as > 20 µM (inactive).
